Assay results from US20240092756A1, “METHODS AND COMPOSITION FOR KRAS MODIFICATIONS” (2692372 ONTARIO, INC., priority 2020, published 2024).

Legend:
[1] = biological target: T1, KRAS G12C (SEQ ID NO:1 or SEQ ID NO:2) (Homo sapiens, UniProt P01116, G12C); assay: Intact mass analysis (LC-MS) of covalent modification, KRAS G12C; assay type: binding; design: key to KRAS G12C Modification: b: KRAS G12C modified; conditions: for KRAS G12C Modification: intact mass spectrometry, covalent modification of KRAS G12C FL
T1 construct: purchased
Procedure: (§1) The covalent modification of the proteins with the compounds were evaluated using intact mass analysis by liquid chromatography-mass spectrometry instrument (LC-MS/MS).
(§2) The reaction solution (20 μL) was prepared in 96-well plate and contained the protein (2 μM), the compound (100 μM), HEPES buffer (20 mM, pH 8), 2% DMSO, 2% glycerol, and 150 mM NaCl. The reaction was allowed to proceed for 24 h at 25° C. The reaction solution (1 μL) was injected into the LC/MS/MS without any further sample preparation.
(§3) The LC-MS/MS instrument comprises of a Waters G2-XS quadrupole-time of flight (QTof) mass spectrometer and a Waters Acuity I-class Ultra-High Performance Liquid Chromatography (UPLC) system. The I-class UPLC system includes a binary solvent manager (BSM), and an Acquity sample manager (SM). The mobile phase consisted of: A) 0.1% (v/v) formic acid in MilliQ water; B) 0.1% (v/v) formic acid acetonitrile. Gradients were run over 5 min and proceeded as follows: A:B, 85:15, 0.0-0.7 min, 85:15→15:85, 0.7-1.5 min, 10:90, 1.5-4 min, 10:90→85:15, 4-4.5 min, 85:15, 4.5-5 min. The analytical column was a Waters BEH C4 column 1.7 μm (50×1 mm) column with pore sizes of 300 Å. The TOF MS data was collected in positive ion mode (m/z of 400-2000 Da) using MassLynx software (Waters).
(§4) The spectral deconvolution was performed using UNIFI software (Waters). The added mass of the protein upon covalent modification to cysteine residues were specified. Multiple modification of up to 8 cysteine was allowed. All the adducts with signal intensities of <2% of the base peak were ignored. The % modification was calculated as the adduct signal intensity over the total intensities of the protein peaks and the adducts.

KRAS G12C [2] = biological target: T2, KRAS G12C (Homo sapiens, UniProt P01116, G12C); assay: SOS1-catalyzed KRAS coupled nucleotide exchange assay (Alpha technology); assay type: biochemical; design: His; key: A: KRAS G12C bound and modulated; conditions: inhibition of SOS1 mediated KRAS nucleotide exchange
In short: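 Alpha readout of c-RAF RBD binding to GTP-bound KRAS, normalized to DMSO. Method I: 20 nM GDP-KRAS G12C/C118A with compound 5 min, then 1.25 mM GTP + 500 nM SOS-1 30 min, pH 7.4 HEPES/MgCl2 buffer, 50 nM RBD. Method II: 50 nM GDP-KRAS G12C with compound 2 h, 1 mM GTP + 500 nM SOS-1 30 min, 2.5 nM GST-RBD; RT throughout.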

[3] = biological target: KRAS G12C Lite (SEQ ID NO:3) (Homo sapiens, UniProt P01116, C118S/C51S/C80S/G12C/S136P/S39C); assay: Intact mass analysis (LC-MS) of covalent modification, KRAS G12C Lite; assay type: binding; design: key to KRAS Lite Modification: a: KRAS Lite modified; conditions: for KRAS Lite Modification: intact mass spectrometry, covalent modification of KRAS G12C Lite
Procedure: as §1, §2, §3, §4

KRAS G12C Lite = KRAS G12C Lite (Homo sapiens, UniProt P01116, C118S/C51S/C80S/G12C/S136P/S39C); assay: Differential scanning fluorimetry, KRAS G12C Lite; assay type: binding; design: key: Y: protein destabilized; N: protein not destabilized; conditions: 37° C. 5 hours incubation
Procedure: (§5) KRas proteins at 0.05 mg/ml in buffer Hepes, 147 mM NaCl, 2% glycerol, 5 mM MgCl2, 1 mM EDTA, 10 μM GDP, pH 8.0 were incubated in the presence desired concentration of compounds (5% DMSO final concentration) at 37° C. for 5 hours. After incubation, Sypro Oange to a final concentration of 5× was added to each sample. 20 μl aliquots of samples were transferred PCR tubes, sealed with caps, and run in a BioRad CFX96 RTPCR thermocycler. In the instrument, the samples were heated at a rate of 1° C./min from 25 to 90 degrees. Fluorescence readings were taken every 1 degree. The data generated was exported and analyzed using GraphPad-Prism software. The denaturation curves were fit using a Boltzmann sigmoidal equation to calculate melting temperatures (Tm).

[4] = test system: phospho-ERK1/2 in MIA PaCa-2 cells (express KRAS G12C); assay: ERK1/2 phosphorylation in MIA PaCa-2 cells; assay type: cell-based, human; design: key: X: KRAS G12C bound and modulated in cells
KRAS G12C [5] = biological target: T2, KRAS G12C; assay: Differential scanning fluorimetry, KRAS G12C; assay type: binding; design: purchased; key: Y: protein destabilized; N: protein not destabilized; conditions: 37° C. 5 hours incubation
Procedure: as §5

[6] = modification by one molecule of compound

KRAS G12C Modification [1] | KRAS-SOS1 Nucleotide Exchange (KRAS G12C [2]) | KRAS Lite Modification [3] | KRAS G12C Lite DSF ΔTm (KRAS G12C Lite) | covalent adduct mass, His-tagged KRAS G12C [1, 6] | covalent adduct mass, His-tagged KRAS G12C Lite [3, 6] | KRAS G12C DSF ΔTm (KRAS G12C [5]) | Compound | pERK - MIA PaCa-2 - (6 hours, 5 uM) [4]
b | A | a | Y | – | – | – | CN1CCC[C@H]1COc1nc2c(c(N3CCN(S(=O)(=O)c4c(F)c(F)c(F)c(F)c4C(F)(F)F)CC3)n1)CCN(c1cccc3cccc(Cl)c13)C2 (stereo in doubt) [Compound 42A, (7R)-7-(8-chloro-1-naphthyl)-2-[[(1S,2S)-1-methylpyrrolidin-2-yl]methoxy]-4-[4-[2,3,4,5-tetrafluoro-6-(trifluoromethyl)phenyl]sulfonylpiperazin-1-yl]-6,8-dihydro-5H-pyrido[3,4-d]pyrimidine] | –
b | – | a | Y | – | – | Y | Cc1ccnc(C(C)C)c1-n1c(=O)nc(N2CCN(S(=O)(=O)c3c(F)c(F)c(F)c(F)c3C(F)(F)F)C[C@@H]2C)c2cc(F)c(Cl)nc21 [Compound 11A, 7-chloro-6-fluoro-1-(2-isopropyl-4-methylpyridin-3-yl)-4-((S)-2-methyl-4-((2,3,4,5-tetrafluoro-6-(trifluoromethyl)phenyl)sulfonyl)piperazin-1-yl)pyrido[2,3-d]pyrimidin-2(1H)-one] | –

More lines, now with the values behind:

Compound | KRAS G12C Modification [1] | KRAS-SOS1 Nucleotide Exchange (KRAS G12C [2]) | KRAS Lite Modification [3] | KRAS G12C Lite DSF ΔTm (KRAS G12C Lite) | covalent adduct mass, His-tagged KRAS G12C [1, 6] | covalent adduct mass, His-tagged KRAS G12C Lite [3, 6] | KRAS G12C DSF ΔTm (KRAS G12C [5]) | pERK - MIA PaCa-2 - (6 hours, 5 uM) [4]
Cc1ccnc(C(C)C)c1-n1c(=O)nc(N2CCN(S(=O)(=O)c3c(F)c(F)c(F)c(F)c3OCF)C[C@@H]2C)c2cc(F)c(-c3c(O)cccc3F)nc21 [Compound 7A, 6-fluoro-7-(2-fluoro-6-hydroxyphenyl)-1-(2-isopropyl-4-methylpyridin-3-yl)-4-((S)-2-methyl-4-((2,3,4,5-tetrafluoro-6-(fluoromethoxy)phenyl)sulfonyl)piperazin-1-yl)pyrido[2,3-d]pyrimidin-2(1H)-one] | b | A | a | – | 22,100 Da | 22,209 Da | – | X
Cc1ccnc(C(C)C)c1-n1c(=O)nc(N2CCN(S(=O)(=O)c3c(F)c(F)c(F)c(F)c3OC(F)F)C[C@@H]2C)c2cc(F)c(Cl)nc21 [Compound 12A, (S)-7-chloro-4-(4-((2-(difluoromethoxy)-3,4,5,6-tetrafluorophenyl)sulfonyl)-2-methylpiperazin-1-yl)-6-fluoro-1-(2-isopropyl-4-methylpyridin-3-yl)pyrido[2,3-d]pyrimidin-2(1H)-one] | b | A | a | Y | – | – | Y | –
Cc1ccnc(C(C)C)c1-n1c(=O)nc(N2CC(NS(=O)(=O)c3c(F)c(F)c(F)c(F)c3C(F)(F)F)C2)c2cc(F)c(Cl)nc21 [Compound 13A, N-(1-(7-chloro-6-fluoro-1-(2-isopropyl-4-methylpyridin-3-yl)-2-oxo-1,2-dihydropyrido[2,3-d]pyrimidin-4-yl)azetidin-3-yl)-2,3,4,5-tetrafluoro-6-(trifluoromethyl)benzenesulfonamide] | b | A | a | Y | – | – | Y | –
